Consider seven molecules from patent US5110800A, “Derivatives of erythromycylamine” (Eli Lilly and Company, priority 1989, dated 1992).

Assay [1] deals with Staphylococcus aureus X1.1. Kind of assay: MIC, standard agar-dilution assay. The assay is classed as cell-based. The note with it: for MIC: Staphylococcus aureus, X1.1, read-out: minimal inhibitory concentration (MIC).
Assay [2] has as its system Staphylococcus aureus V41. In words: MIC, standard agar-dilution assay. The class given is cell-based. The following applies: penicillin-resistant strain, inducibly erythromycin-resistant; for MIC: Staphylococcus aureus, V41, Table V, read-out: minimal inhibitory concentration (MIC). The source says:
(§1) In addition to excellent in vitro activity against erythromycin-sensitive bacteria, several members of this new series have shown in vitro activity against erythromycin-resistant strains. These include strains which are inducibly-resistant to erythromycin (S. aureus V41 and X400 and S. epidermidis EPI1) and even strains which are constitutively-resistant (S. epidermidis 270).

Assay [3] deals with Staphylococcus aureus X400. In words: MIC, standard agar-dilution assay. The class given is cell-based. The note with it: methicillin-resistant strain, inducibly erythromycin-resistant; for MIC: Staphylococcus aureus, X400, Table V, read-out: minimal inhibitory concentration (MIC).
Excerpt: as §1

The test system of assay [4] is Staphylococcus epidermidis 270. Kind of assay: MIC, standard agar-dilution assay. The assay is classed as cell-based. The note with it: Table IV; constitutively erythromycin-resistant.
Excerpt: as §1

Assay [5] concerns Staphylococcus aureus S13E. In words: MIC, standard agar-dilution assay. The assay is classed as cell-based.
For assay [6], the system named is Staphylococcus epidermidis 222. Kind of assay: MIC, standard agar-dilution assay. The class given is cell-based. The following applies: for MIC: Staphylococcus epidermidis, 222, read-out: minimal inhibitory concentration (MIC).
The test system of assay [7] is Streptococcus pyogenes C203. Kind of assay: MIC, standard agar-dilution assay. The class given is cell-based. The note with it: for MIC: Streptococcus pyogenes, C203, read-out: minimal inhibitory concentration (MIC).
Assay [8] has as its system Streptococcus pneumoniae Park I. Kind of assay: MIC, standard agar-dilution assay. The class given is cell-based. The following applies: for MIC: Streptococcus pneumoniae, read-out: minimal inhibitory concentration (MIC).
In assay [9] the test system is Streptococcus sp. group D X66. In words: MIC, standard agar-dilution assay. The assay is classed as cell-based. The note with it: for MIC: Streptococcus, read-out: minimal inhibitory concentration (MIC).
For assay [10], the system named is Streptococcus sp. group D 2041. In words: MIC, standard agar-dilution assay. The assay is classed as cell-based. The following applies: for MIC: Streptococcus, read-out: minimal inhibitory concentration (MIC).
The subject of assay [11] is Haemophilus influenzae C.L. Kind of assay: MIC, standard agar-dilution assay. The following applies: for MIC: Haemophilus influenzae, read-out: minimal inhibitory concentration (MIC). The assay is classed as cell-based.
Assay [12] deals with Haemophilus influenzae 76. Kind of assay: MIC, standard agar-dilution assay. The class given is cell-based. The following applies: ampicillin-resistant strain.
Another assay deals with Escherichia coli EC14. Kind of assay: MIC, standard agar-dilution assay. The assay is classed as cell-based. The note with it: for MIC: Escherichia coli.
The test system of assay [13] is Klebsiella pneumoniae X68. Kind of assay: MIC, standard agar-dilution assay. The assay is classed as cell-based. The following applies: for MIC: Klebsiella pneumoniae.
The subject of the next assay is Staphylococcus aureus. Kind of assay: Oral ED50 against experimental infection in mice. The assay is classed as in vivo. The following applies: two doses, protects 50% of animals. The method, then:
(§2) The new derivatives of this invention have also shown in vivo antimicrobial activity against experimental bacterial infections. When two doses of test compound were administered to mice in experimental infections, the activity observed was measured as an ED50 value [effective dose in mg/kg to protect 50% of the test animals: see Warren Wick, et al., J. Bacteriol. 81, 233-235 (1961)].

The test system of a further assay is Streptococcus pneumoniae. Kind of assay: Oral ED50 against experimental infection in mice. The note with it: two doses, protects 50% of animals. The class given is in vivo. The method, then:
as §2

The next assay relates to Streptococcus pyogenes. Kind of assay: Oral ED50 against experimental infection in mice. The class given is in vivo. The note with it: two doses, protects 50% of animals. The method, then:
as §2

The subject of assay [14] is Staphylococcus epidermidis EPI1. In words: MIC, standard agar-dilution assay. The class given is cell-based. The following applies: EPI1, read-out: minimal inhibitory concentration (MIC).
Excerpt: as §1

Setting [15] is: EC14, Table V, agar dilution, read-out: minimal inhibitory concentration (MIC).
Where [16] appears, read: X68, Table V, agar dilution, read-out: minimal inhibitory concentration (MIC).

In brackets after ≈: the same amount, converted by molar mass. Read-outs that look alike come from different tables or passages of the source.

For the molecule “Endo- and Exo-9-Deoxo-9-[(bicyclo[2.2.1]hept-2-en-5-yl-methyl)amino]erythromycin [Compound 19]”, the “minimal inhibitory concentration (MIC)” value in [1] (Table IV, agar dilution) was 2 µg/mL; in assay [2] (Table IV) it was “-- (-- = >128)”; in assay [3] (Table IV), “-- (-- = >128)”; in assay [4] it was “-- (-- = >128)”; in [5] (Table IV, agar dilution) it was 2 µg/mL; in [6] (Table IV, agar dilution), 1 µg/mL. In addition, the “minimal inhibitory concentration (MIC)” value in assay [7] (Table IV, agar dilution) came out at 0.25 µg/mL; in assay [8] (Table IV, agar dilution), 0.015 µg/mL; in assay [9] (Table IV, agar dilution), 1 µg/mL; in [10] (Table IV, agar dilution), 8 µg/mL; in [11] (Table IV, ampicillin-sensitive strain), 8 µg/mL; in assay [12] (Table IV), 8 µg/mL. For the same molecule, the “minimal inhibitory concentration (MIC)” value was 64 µg/mL in the assay on Escherichia coli EC14 (Table IV, agar dilution) and “-- (-- = >128)” in [13] (Table IV, agar dilution). For the same molecule, the “Oral ED50” value in the assay with Staphylococcus aureus is on record as > 50 mg/kg; in the assay on Streptococcus pneumoniae, 25.0 mg/kg; in the assay on Streptococcus pyogenes it was 16.6 mg/kg.

Turning to `CC[C@H]1OC(=O)[C@H](C)[C@@H](O[C@H]2C[C@@](C)(OC)[C@@H](O)[C@H](C)O2)[C@H](C)[C@@H](O[C@@H]2O[C@H](C)C[C@H](N(C)C)[C@H]2O)[C@](C)(O)C[C@@H](C)[C@H](N(C)C(C)C)[C@H](C)[C@@H](O)[C@]1(C)O` [Compound 70, 9-Deoxo-9-[(N-methyl-N-isopropyl)amino]erythromycin], the MIC in assay [1] is 8 µg/mL (≈ 10.1 µM); in assay [2], > 128 µg/mL; in assay [3], > 128 µg/mL; in assay [14] it was > 128 µg/mL; in assay [6] it was 8 µg/mL (≈ 10.1 µM); in assay [7], 0.5 µg/mL (≈ 0.632 µM). For the same molecule, the MIC was 0.5 µg/mL (≈ 0.632 µM) in assay [8], 2 µg/mL (≈ 2.53 µM) in [9], > 128 µg/mL with Escherichia coli EC14 (setting [15]) and > 128 µg/mL in assay [13] (setting [16]).

With `CC[C@H]1OC(=O)[C@H](C)[C@@H](O[C@H]2C[C@@](C)(OC)[C@@H](O)[C@H](C)O2)[C@H](C)[C@@H](O[C@@H]2O[C@H](C)C[C@H](N(C)C)[C@H]2O)[C@](C)(O)C[C@@H](C)[C@H](N(C)C)[C@H](C)[C@@H](O)[C@]1(C)O` [Compound 69, 9-Deoxo-9-(dimethylamino)erythromycin], the MIC in assay [14] is > 128 µg/mL; in [6], 2 µg/mL (≈ 2.62 µM); in assay [7], 0.25 µg/mL (≈ 0.328 µM); in assay [9] it was 0.5 µg/mL (≈ 0.655 µM); in [11], 2 µg/mL (≈ 2.62 µM); in the assay on Escherichia coli EC14 (EC14, read-out: minimal inhibitory concentration (MIC)), 128 µg/mL (≈ 168 µM). Also, the MIC in assay [13] (setting [16]) was > 128 µg/mL.

With `CC[C@H]1OC(=O)[C@H](C)[C@@H](O[C@H]2C[C@@](C)(OC)[C@@H](O)[C@H](C)O2)[C@H](C)[C@@H](O[C@@H]2O[C@H](C)C[C@H](N(C)C)[C@H]2O)[C@](C)(O)C[C@@H](C)[C@H]2[C@H](C)[C@@H](OCN2C(C)CCCN(C)C)[C@]1(C)O` (stereo partly shown) [Compound 63, 9-Deoxo-9-[(5-dimethylamino-2-pentyl)amino]-9,11-(N,O)-cyclic-Methylene Adduct of Erythromycin], the MIC in assay [1] was 8 µg/mL (≈ 9.3 µM); in assay [2], > 128 µg/mL; in assay [3], > 128 µg/mL; in assay [14], > 128 µg/mL; in assay [5] (Staphylococcus aureus, S13E, read-out: minimal inhibitory concentration (MIC)), 8 µg/mL (≈ 9.3 µM); in assay [6] it was 8 µg/mL (≈ 9.3 µM). For the same molecule, the MIC in [7] was determined as 0.5 µg/mL (≈ 0.581 µM); in assay [8], 0.5 µg/mL (≈ 0.581 µM); in assay [9], 2 µg/mL (≈ 2.33 µM); in [10] (Table V, agar dilution) it was 32 µg/mL (≈ 37.2 µM); in assay [11] (Table V, ampicillin-sensitive strain), 8 µg/mL (≈ 9.3 µM); in [12] (Haemophilus influenzae, 76, Table V, read-out: minimal inhibitory concentration (MIC)), 8 µg/mL (≈ 9.3 µM). Further, the MIC worked out at 32 µg/mL (≈ 37.2 µM) with Escherichia coli EC14 (setting [15]) and 128 µg/mL (≈ 149 µM) in assay [13] (X68, read-out: minimal inhibitory concentration (MIC)).

For the molecule `CC[C@H]1OC(=O)[C@H](C)[C@@H](O[C@H]2C[C@@](C)(OC)[C@@H](O)[C@H](C)O2)[C@H](C)[C@@H](O[C@@H]2O[C@H](C)C[C@H](N(C)C)[C@H]2O)[C@](C)(O)C[C@@H](C)[C@H](N(C)C2CCCCC2)[C@H](C)[C@@H](O)[C@]1(C)O` [Compound 71, 9-Deoxo-9-[(N-cyclohexyl-N-methyl)amino]erythromycin], the MIC in assay [1] was 16 µg/mL (≈ 19.3 µM); in [2], > 128 µg/mL; in [3] it was > 128 µg/mL; in [14] it was > 128 µg/mL; in assay [6], 8 µg/mL (≈ 9.63 µM); in assay [7], 1 µg/mL (≈ 1.2 µM). Further, the MIC in assay [8] was 0.125 µg/mL (≈ 0.15 µM); in assay [9], 8 µg/mL (≈ 9.63 µM); in assay [10] it was 128 µg/mL (≈ 154 µM); with Escherichia coli EC14 (setting [15]), > 128 µg/mL; in assay [13] (setting [16]) it was > 128 µg/mL.

`CC[C@H]1OC(=O)[C@H](C)[C@@H](O[C@H]2C[C@@](C)(OC)[C@@H](O)[C@H](C)O2)[C@H](C)[C@@H](O[C@@H]2O[C@H](C)C[C@H](N(C)C)[C@H]2O)[C@](C)(O)C[C@@H](C)[C@H](N2CCCCC2)[C@H](C)[C@@H](O)[C@]1(C)O` [Compound 72, 9-Deoxo-9-(1-piperidinyl)erythromycin]: the MIC was 16 µg/mL (≈ 19.9 µM) in assay [1]; > 128 µg/mL in assay [2]; > 128 µg/mL in [3]; > 128 µg/mL in assay [14]; 8 µg/mL (≈ 9.96 µM) in [6]; 1 µg/mL (≈ 1.25 µM) in assay [7]. In addition, the MIC in [8] was 1 µg/mL (≈ 1.25 µM); in [10], 128 µg/mL (≈ 159 µM); in assay [11], 2 µg/mL (≈ 2.49 µM); with Escherichia coli EC14 (setting [15]) it was > 128 µg/mL; in assay [13] (setting [16]), > 128 µg/mL.

On to `CC[C@H]1OC(=O)[C@H](C)[C@@H](O[C@H]2C[C@@](C)(OC)[C@@H](O)[C@H](C)O2)[C@H](C)[C@@H](O[C@@H]2O[C@H](C)C[C@H](N(C)C)[C@H]2O)[C@](C)(O)C[C@@H](C)[C@H]2[C@H](C)[C@@H](OCN2C2CCCC2)[C@]1(C)O` [Compound 60, 9-Deoxo-9-(cyclopentylamino)-9,11(N,O)-cyclic Methylene Adduct of Erythromycin], for which the MIC was 1 µg/mL (≈ 1.23 µM) in [1]; > 128 µg/mL in [2]; > 128 µg/mL in [3]; > 128 µg/mL in assay [14]; 1 µg/mL (≈ 1.23 µM) in assay [6]; 0.125 µg/mL (≈ 0.153 µM) in assay [7]. Besides, the MIC in assay [8] worked out at 0.06 µg/mL (≈ 0.0736 µM); in assay [9], 0.5 µg/mL (≈ 0.613 µM); in assay [10] it was 8 µg/mL (≈ 9.81 µM).
